In brackets after ≈: the same amount, converted by molar mass.
Tests used:
Assay type in all cases: functional
Aspergillus sp. = experiment: Antifungal activity against 0.4x10'4 to 5x10^4 CFU/ml Aspergillus sp. after 48 hrs by CLSI M38-A broth microdilution method
Aspergillus oryzae = experiment: Antifungal activity against 0.4x10'4 to 5x10^4 CFU/ml Aspergillus oryzae after 48 hrs by CLSI M38-A broth microdilution method
Fusarium poae = experiment: Antifungal activity against 0.4x10'4 to 5x10^4 CFU/ml Fusarium poae after 48 hrs by CLSI M38-A broth microdilution method
Fusarium sp. = experiment: Antifungal activity against 0.4x10'4 to 5x10^4 CFU/ml Fusarium sp. after 48 hrs by CLSI M38-A broth microdilution method
Fusarium avenaceum = experiment: Antifungal activity against 0.4x10'4 to 5x10^4 CFU/ml Fusarium avenaceum after 48 hrs by CLSI M38-A broth microdilution method
Aspergillus fumigatus = experiment: Antifungal activity against 0.4x10'4 to 5x10^4 CFU/ml Aspergillus fumigatus after 48 hrs by CLSI M38-A broth microdilution method
Aspergillus versicolor = experiment: Antifungal activity against 0.4x10'4 to 5x10^4 CFU/ml Aspergillus versicolor after 48 hrs by CLSI M38-A broth microdilution method
Fusarium verticillioides = experiment: Antifungal activity against 0.4x10'4 to 5x10^4 CFU/ml Fusarium moniliforme after 48 hrs by CLSI M38-A broth microdilution method
Fusarium solani = experiment: Antifungal activity against 0.4x10'4 to 5x10^4 CFU/ml Fusarium solani after 48 hrs by CLSI M38-A broth microdilution method
Aspergillus niger = experiment: Antifungal activity against 0.4x10'4 to 5x10^4 CFU/ml Aspergillus niger after 48 hrs by CLSI M38-A broth microdilution method
Fusarium oxysporum = experiment: Antifungal activity against 0.4x10'4 to 5x10^4 CFU/ml Fusarium oxysporum after 48 hrs by CLSI M38-A broth microdilution method
Aspergillus flavus = experiment: Antifungal activity against 0.4x10'4 to 5x10^4 CFU/ml Aspergillus flavus after 48 hrs by CLSI M38-A broth microdilution method

- MIC50 (Aspergillus sp.): 32 µg/mL (≈ 48.1 µM)
- MIC90 (Aspergillus sp.): 32 µg/mL (≈ 48.1 µM)
- MIC50 (Aspergillus oryzae): 32 µg/mL (≈ 48.1 µM)
- MIC90 (Aspergillus oryzae): 32 µg/mL (≈ 48.1 µM)
- MIC (Fusarium poae): 4 µg/mL (≈ 6.01 µM)
- MIC (Fusarium sp.): 4 µg/mL (≈ 6.01 µM)
- MIC50 (Fusarium sp.): 4 µg/mL (≈ 6.01 µM)
- MIC90 (Fusarium sp.): 8 µg/mL (≈ 12 µM)
- MIC50 (Fusarium avenaceum): 8 µg/mL (≈ 12 µM)
- MIC90 (Fusarium avenaceum): 8 µg/mL (≈ 12 µM)
- MIC (Aspergillus fumigatus): 4 µg/mL (≈ 6.01 µM)
- MIC50 (Aspergillus fumigatus): 4 µg/mL (≈ 6.01 µM)
- MIC90 (Aspergillus fumigatus): 4 µg/mL (≈ 6.01 µM)
- MIC50 (Aspergillus versicolor): 8 µg/mL (≈ 12 µM)
- MIC90 (Aspergillus versicolor): 32 µg/mL (≈ 48.1 µM)
- MIC (Fusarium verticillioides): 4 µg/mL (≈ 6.01 µM)
- MIC50 (Fusarium verticillioides): 4 µg/mL (≈ 6.01 µM)
- MIC90 (Fusarium verticillioides): 8 µg/mL (≈ 12 µM)
- MIC (Fusarium solani): 4 µg/mL (≈ 6.01 µM)
- MIC50 (Fusarium solani): 4 µg/mL (≈ 6.01 µM)
- MIC90 (Fusarium solani): 8 µg/mL (≈ 12 µM)
- MIC (Aspergillus niger): 0.25 µg/mL (≈ 0.376 µM)
- MIC (Fusarium oxysporum): 4 µg/mL (≈ 6.01 µM)
- MIC50 (Aspergillus flavus): 32 µg/mL (≈ 48.1 µM)
- MIC90 (Aspergillus flavus): 32 µg/mL (≈ 48.1 µM)
SMILES: C[C@@H]1C/C=C/C=C/C=C/C=C/[C@H](O[C@@H]2O[C@H](C)[C@@H](O)[C@H](N)[C@@H]2O)C[C@@H]2O[C@](O)(C[C@@H](O)C[C@H]3O[C@@H]3/C=C/C(=O)O1)C[C@H](O)[C@H]2C(=O)O [NATAMYCIN]
